From paper PMC11052001, “A Novel IRAK4 Inhibitor DW18134 Ameliorates Peritonitis and Inflammatory Bowel Disease” (Molecules, 2024)

Biological target: T1, IRAK4 (Homo sapiens, UniProt Q9NWZ3)
T1 sequence (Q9NWZ3 1-460): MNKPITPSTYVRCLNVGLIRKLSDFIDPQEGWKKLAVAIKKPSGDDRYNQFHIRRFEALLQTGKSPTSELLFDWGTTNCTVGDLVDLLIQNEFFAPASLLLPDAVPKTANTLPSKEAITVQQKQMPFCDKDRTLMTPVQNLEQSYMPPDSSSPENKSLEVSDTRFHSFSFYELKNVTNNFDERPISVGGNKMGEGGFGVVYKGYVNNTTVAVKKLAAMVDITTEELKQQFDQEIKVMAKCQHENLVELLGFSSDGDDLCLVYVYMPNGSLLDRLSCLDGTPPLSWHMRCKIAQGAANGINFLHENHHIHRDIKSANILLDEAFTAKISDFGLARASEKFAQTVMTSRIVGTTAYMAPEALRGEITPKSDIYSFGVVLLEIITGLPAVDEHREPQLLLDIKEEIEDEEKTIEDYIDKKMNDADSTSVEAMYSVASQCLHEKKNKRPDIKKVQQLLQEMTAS
Assay: enzymatic kinase activity assay
Assay type: biochemical
Details: read-out: DW18134

IC50: 11.2 ± 2 nM
Compound: CC1(C)Cc2cc(NC(=O)c3coc(-c4ccnc(N)c4)n3)c(-c3ccncc3)cc2O1 [DW18134]
